Measured values published in ChEMBL document CHEMBL1667722, “Radical scavenging and antioxidant activities of isocoumarins and a phthalide from the endophytic fungus Colletotrichum sp” (J Nat Prod, 2011).
pIC50: −log10 of the molar value.

Legend:
HepG2 = experiment: Cytotoxicity against human HepG2 cells by MTT assay; assay type: functional, cell-based
A549 = experiment: Cytotoxicity against human A549 cells by MTT assay; assay type: functional, cell-based
[1] = Cytotoxicity against human HuCCA1 cells by MTT assay; assay type: functional, cell-based; details: HuCC-A1
MOLT-3 = experiment: Cytotoxicity against human MOLT3 cells by XTT assay; assay type: functional, cell-based
[2] = target: Xanthine dehydrogenase/oxidase (Homo sapiens, UniProt P47989); experiment: Inhibition of Xanthine oxidase
[3] = Antioxidant activity assessed as inhibition of xanthine-xanthine oxidase generated superoxide anion radical production; assay type: functional
HL-60 = experiment: Antioxidant activity in human HL60 cells assessed as inhibition of TPA-induced superoxide anion radical production; assay type: functional, cell-based
[4] = test system: Radical scavenging activity; experiment: Antioxidant activity assessed as DPPH radical scavenging activity; assay type: functional
Aromatase = target: T1, Aromatase (Homo sapiens, UniProt P11511); experiment: Inhibition of CYP19
T1 sequence (P11511 whole entry): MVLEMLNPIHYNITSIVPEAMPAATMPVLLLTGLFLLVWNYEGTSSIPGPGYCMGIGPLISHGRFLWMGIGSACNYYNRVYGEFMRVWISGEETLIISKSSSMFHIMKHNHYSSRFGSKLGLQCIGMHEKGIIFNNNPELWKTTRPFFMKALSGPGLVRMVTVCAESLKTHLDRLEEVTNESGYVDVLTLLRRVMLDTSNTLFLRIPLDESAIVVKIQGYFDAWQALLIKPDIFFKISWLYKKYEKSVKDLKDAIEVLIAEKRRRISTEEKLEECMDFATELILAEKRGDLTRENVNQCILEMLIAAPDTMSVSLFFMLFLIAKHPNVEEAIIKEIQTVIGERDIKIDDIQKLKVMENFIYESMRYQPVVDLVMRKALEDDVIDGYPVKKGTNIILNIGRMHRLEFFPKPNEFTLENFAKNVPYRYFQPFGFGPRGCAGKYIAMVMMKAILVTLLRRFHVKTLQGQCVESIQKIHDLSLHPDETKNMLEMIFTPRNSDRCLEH

Xanthine dehydrogenase/oxidase, sequence (P47989 whole entry): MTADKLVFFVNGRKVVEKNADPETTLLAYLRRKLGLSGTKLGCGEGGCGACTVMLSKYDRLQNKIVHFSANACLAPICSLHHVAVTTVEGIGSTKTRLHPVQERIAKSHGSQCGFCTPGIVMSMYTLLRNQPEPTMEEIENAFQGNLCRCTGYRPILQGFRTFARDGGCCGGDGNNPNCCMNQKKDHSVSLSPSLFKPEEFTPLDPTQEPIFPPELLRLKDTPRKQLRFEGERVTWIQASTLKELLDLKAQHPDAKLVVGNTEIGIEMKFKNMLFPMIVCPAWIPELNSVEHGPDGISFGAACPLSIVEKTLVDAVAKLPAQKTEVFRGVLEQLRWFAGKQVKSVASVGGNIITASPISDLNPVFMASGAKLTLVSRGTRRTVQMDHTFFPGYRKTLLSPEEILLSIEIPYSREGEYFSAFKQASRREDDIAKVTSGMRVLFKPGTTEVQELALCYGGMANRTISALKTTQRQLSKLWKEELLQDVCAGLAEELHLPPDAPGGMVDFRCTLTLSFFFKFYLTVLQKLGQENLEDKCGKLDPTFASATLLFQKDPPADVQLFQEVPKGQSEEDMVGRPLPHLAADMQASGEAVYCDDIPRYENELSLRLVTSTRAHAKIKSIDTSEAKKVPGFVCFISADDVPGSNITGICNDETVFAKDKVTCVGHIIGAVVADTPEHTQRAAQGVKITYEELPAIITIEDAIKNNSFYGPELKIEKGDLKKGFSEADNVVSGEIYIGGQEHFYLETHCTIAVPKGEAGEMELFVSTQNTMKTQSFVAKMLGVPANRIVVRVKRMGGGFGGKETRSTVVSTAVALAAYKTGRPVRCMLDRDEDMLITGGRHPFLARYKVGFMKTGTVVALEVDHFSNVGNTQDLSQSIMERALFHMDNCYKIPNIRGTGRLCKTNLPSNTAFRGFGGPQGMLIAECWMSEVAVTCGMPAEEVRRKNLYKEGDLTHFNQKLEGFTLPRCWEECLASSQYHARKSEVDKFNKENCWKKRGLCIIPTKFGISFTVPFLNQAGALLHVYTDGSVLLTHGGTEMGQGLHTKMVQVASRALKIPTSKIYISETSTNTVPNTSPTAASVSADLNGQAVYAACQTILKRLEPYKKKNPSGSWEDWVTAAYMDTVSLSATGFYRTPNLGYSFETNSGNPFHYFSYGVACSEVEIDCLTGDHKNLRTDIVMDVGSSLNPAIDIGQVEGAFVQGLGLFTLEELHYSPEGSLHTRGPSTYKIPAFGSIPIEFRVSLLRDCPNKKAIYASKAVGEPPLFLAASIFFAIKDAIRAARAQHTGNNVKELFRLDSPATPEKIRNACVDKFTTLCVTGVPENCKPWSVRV

Row | pIC50 [2] | pIC50 [3] | pIC50 (HL-60) | pIC50 [4] | pIC50 (Aromatase) | SMILES | pIC50 (HepG2) | pIC50 (A549) | pIC50 [1] | pIC50 (MOLT-3)
1 |  |  |  |  |  | COc1cccc2c1C(=O)c1c(O)c3c(c(O)c1C2=O)C[C@@](O)(C(=O)CO)C[C@@H]3O[C@H]1C[C@H](N)[C@H](O)[C@H](C)O1 [DOXORUBICIN] | 6.54 | 6.47 | 6.17 | 
2 |  |  |  |  |  | COc1cc([C@@H]2c3cc4c(cc3[C@@H](O[C@@H]3O[C@@H]5CO[C@@H](C)O[C@H]5[C@H](O)[C@H]3O)[C@H]3COC(=O)[C@H]23)OCO4)cc(OC)c1O [ETOPOSIDE] | 4.80 |  |  | 7.52
3 | < 3.21 | 3.45 | < 3.91 | < 3.51 | < 4.82 | CCC[C@@H](O)C[C@H]1OC(=O)c2c(cc(OC)c(OC)c2O)[C@H]1O |  |  |  | < 3.81
4 |  |  |  | 4.67 |  | O=C1O[C@H]([C@@H](O)CO)C(O)=C1O [ASCORBIC ACID] |  |  |  | 
5 | < 3.19 |  | < 3.89 | < 3.49 | < 4.79 | CCCC(=O)CC[C@H]1OC(=O)c2c1cc(OC)c(OC)c2O [COLLETOTRIALIDE] | < 3.79 | < 3.79 | < 3.79 | 3.83
6 | < 3.17 | 5.37 | < 3.87 | 4.79 | < 4.77 | CCC[C@H](O)C[C@@H]1Cc2cc(OC)c(O)c(O)c2C(=O)O1 [FUSARENTIN 6-METHYL ETHER] |  |  |  | < 3.77
7 | < 3.19 |  | < 3.89 | < 3.49 | < 4.79 | CCC[C@H](O)C[C@@H]1Cc2cc(OC)c(OC)c(O)c2C(=O)O1 [FUSARENTIN 6,7-DIMETHYLETHER] | 3.92 | < 3.79 | < 3.79 | 3.94
8 | < 3.17 | 4.28 | < 3.87 | 4.63 | < 4.77 | CCC[C@H]1C[C@H]2OC(=O)c3c(cc(OC)c(O)c3O)[C@H]2O1 | 4.63 | < 3.77 | < 3.77 | 3.91

Row | SMILES | pIC50 [2] | pIC50 [3] | pIC50 (HL-60) | pIC50 [4] | pIC50 (Aromatase) | pIC50 (HepG2) | pIC50 (A549) | pIC50 [1] | pIC50 (MOLT-3)
9 | CCC[C@H]1C[C@H]2OC(=O)c3c(cc(OC)c(OC)c3O)[C@H]2O1 [MONOCERIN] | < 3.19 | < 3.19 | < 3.89 | < 3.49 | < 4.79 | < 3.79 | < 3.79 | < 3.79 | 3.82
10 | Oc1ncnc2[nH]ncc12 [ALLOPURINOL] |  | 5.52 |  |  |  |  |  |  | 
